Several values for one entry are separate records, joined by “and”; a condition that tells them apart may be missing. Equal values may be shown once.
Legend:
[1] = tested on: Escherichia coli ATCC 11229; test: AOAC Method 960.09 Germicidal and Detergent Sanitizing Action of Disinfectants, food contact sanitizing suspension test; type: cell-based
Procedure: (§1) The microbial efficacy of the multipurpose sanitizing composition was evaluated for food contact applications. The purpose of the testing is to determine the efficacy of compositions used for sanitizing food contact surfaces, which in the evaluations were pre-cleaned, non-porous surfaces using AOAC Method 960.09 Germicidal and Detergent Sanitizing Action of Disinfectants. […] The test organisms included Staphylococcus aureus ATCC 6538 and Escherichia coli ATCC 11229.
(§2) The pH was adjusted by use of a polycarboxylic acid (unless otherwise noted, such as the polycarboxylate citrate tested at pH 8). In this screening test pH 9, 8, 7, 5, 4, and 3 were tested. “NT” indicates a condition was “Not Tested.”

[2] = tested on: Staphylococcus aureus ATCC 6538; test: as above; type: cell-based; details: for Average Log Reduction / CFU - Dilution 1E−01 / CFU - Dilution 1E−02 / CFU/mL / Log / Log Reduction: 50 ppm; for Average Log Reduction / CFU - Dilution 1E−01 / CFU - Dilution 1E−02 / CFU/mL / Log: Example 4; for Log Reduction: Example 4, per replicate
Procedure: as §1, §2

[3] = 50 ppm, pH 4, 77° F., Example 4
[4] = 50 ppm, pH 5, 77° F., Example 4
[5] = 50 ppm, pH 6, 77° F., Example 4
[6] = 50 ppm, pH 7, 77° F., Example 3
[7] = 50 ppm, pH 7 as printed (second sample of Table 15), 77° F.
[8] = 50 ppm, pH 7.5-8 (no pH adjustment), 77° F., Example 4
[9] = pH 7.5-8 (no pH adjustment), 77° F.
[10] = 30 ppm, pH 5, 120° F., listed as Stepan Quat

didecyl dimethyl ammonium carbonate/bicarbonate [CarboQuat]
log reduction E. coli (ATCC 11229) ([1]; 20 ppm, pH 5, 120° F.): 5.08 log
log reduction E. coli (ATCC 11229) ([1]; 30 ppm, pH 3, 120° F.): 6.25 log
log reduction E. coli (ATCC 11229) ([1]; 30 ppm, pH 4, 120° F.): 6.88 log
Average Log Reduction ([1]; 30 ppm, pH 5, 104° F.): 5.61 log
CFU - Dilution 1E−01 ([1]; 30 ppm, pH 5, 104° F.): 14 CFU and 28 CFU
CFU - Dilution 1E−02 ([1]; 30 ppm, pH 5, 104° F.): 3 CFU and 6 CFU
Log Reduction ([1]; 30 ppm, pH 5, 104° F., per replicate): 5.76 log and 5.46 log
log reduction E. coli (ATCC 11229) ([1]; 30 ppm, pH 5, citric acid, 120° F.): 6.67 log
log reduction E. coli (ATCC 11229) ([1]; 30 ppm, pH 5, formic acid, 120° F.): 6.67 log
Average Log Reduction ([1]; 30 ppm, pH 7, 104° F.): 3.47 log
CFU - Dilution 1E−01 ([1]; 30 ppm, pH 7, 104° F.): TNTC
CFU - Dilution 1E−02 ([1]; 30 ppm, pH 7, 104° F.): TNTC
CFU/mL ([1]; 30 ppm, pH 7, 104° F.): 3.00E+04 CFU/mL
Log ([1]; 30 ppm, pH 7, 104° F.): 4.48
Log Reduction ([1]; 30 ppm, pH 7, 104° F., per replicate): 3.47 log
Average Log Reduction ([1]; 30 ppm, pH 7, 120° F.): 6.68 log
CFU - Dilution 1E−01 ([1]; 30 ppm, pH 7, 120° F.): 0 CFU
CFU - Dilution 1E−02 ([1]; 30 ppm, pH 7, 120° F.): 0 CFU
CFU/mL ([1]; 30 ppm, pH 7, 120° F.): 1E+01 CFU/mL
Log ([1]; 30 ppm, pH 7, 120° F.): 1.00
Log Reduction ([1]; 30 ppm, pH 7, 120° F., per replicate): 6.68 log
Average Log Reduction ([1]; 30 ppm, pH 8, 120° F.): 3.21 log
CFU - Dilution 1E−01 ([1]; 30 ppm, pH 8, 120° F.): TNTC
CFU - Dilution 1E−02 ([1]; 30 ppm, pH 8, 120° F.): TNTC
CFU/mL ([1]; 30 ppm, pH 8, 120° F.): 3.00E+04 CFU/mL
Log ([1]; 30 ppm, pH 8, 120° F.): 4.48
Log Reduction ([1]; 30 ppm, pH 8, 120° F., per replicate): 3.21 log
log reduction E. coli (ATCC 11229) ([1]; 30 ppm, pH 8, citrate, 120° F.): 3.20 log
Average Log Reduction ([1]; 40 ppm, pH 8, 120° F.): 5.70 log
Log Reduction ([1]; 40 ppm, pH 8, 120° F., per replicate): 5.28 log and 6.12 log
Average Log Reduction [1, 3]: 5.22 log
CFU - Dilution 1E−01 [1, 3]: 44 CFU
CFU - Dilution 1E−02 [1, 3]: 7 CFU and 4 CFU
CFU/mL [1, 3]: 4.6E+02 CFU/mL and 4.4E+02 CFU/mL
Log [1, 3]: 2.67 and 2.64
Log Reduction ([1]; 50 ppm, pH 4, 77° F., Example 4, per replicate): 5.21 log and 5.23 log
log reduction E. coli (ATCC 11229) ([1]; 50 ppm, pH 5, 77° F., Example 3): 6.70 log
Average Log Reduction [1, 4]: 6.87 log
CFU - Dilution 1E−01 [1, 4]: 0 CFU
CFU - Dilution 1E−02 [1, 4]: 0 CFU
CFU/mL [1, 4]: 1.0E+01 CFU/mL
Log [1, 4]: 1.00
Log Reduction ([1]; 50 ppm, pH 5, 77° F., Example 4, per replicate): 6.87 log
log reduction E. coli (ATCC 11229) ([1]; 50 ppm, pH 5, 104° F.): 6.95 log
Average Log Reduction [1, 5]: 4.07 log
CFU - Dilution 1E−01 [1, 5]: TNTC
CFU - Dilution 1E−02 [1, 5]: 84 CFU and 48 CFU
CFU/mL [1, 5]: 8.4E+03 CFU/mL and 4.8E+03 CFU/mL
Log [1, 5]: 3.92 and 3.68
Log Reduction ([1]; 50 ppm, pH 6, 77° F., Example 4, per replicate): 3.95 log and 4.19 log
Average Log Reduction [1, 6]: 3.35 log
CFU - Dilution 1E−01 [1, 6]: TNTC
CFU - Dilution 1E−02 [1, 6]: TNTC
CFU/mL [1, 6]: 3.00E+04 CFU/mL
Log [1, 6]: 4.48
Log Reduction ([1]; 50 ppm, pH 7, 77° F., Example 3, per replicate): 3.35 log
log reduction E. coli (ATCC 11229) ([1]; 50 ppm, pH 7, 104° F.): 6.71 log
Average Log Reduction [1, 7]: 6.70 log
CFU - Dilution 1E−01 [1, 7]: 2 CFU and 1 CFU
CFU - Dilution 1E−02 [1, 7]: 0 CFU
CFU/mL [1, 7]: 2E+01 CFU/mL and 1E+01 CFU/mL
Log [1, 7]: 1.26 and 1.00
Log Reduction ([1]; 50 ppm, pH 7 as printed (second sample of Table 15), 77° F., per replicate): 6.57 log and 6.83 log
Average Log Reduction [1, 8]: 3.40 log
CFU - Dilution 1E−01 [1, 8]: TNTC
CFU - Dilution 1E−02 [1, 8]: TNTC
CFU/mL [1, 8]: 3.0E+04 CFU/mL
Log [1, 8]: 4.48
Log Reduction ([1]; 50 ppm, pH 7.5-8 (no pH adjustment), 77° F., Example 4, per replicate): 3.40 log
log reduction E. coli (ATCC 11229) ([1]; 50 ppm, pH 9, 77° F., Example 3): 3.35 log
log reduction E. coli (ATCC 11229) ([1]; 50 ppm, pH 9, 104° F.): 5.33 log
log reduction E. coli (ATCC 11229) ([1]; 75 ppm, pH 5, 77° F., Example 3): 6.83 log
log reduction E. coli (ATCC 11229) ([1]; 75 ppm, pH 5, 104° F.): 6.95 log
log reduction E. coli (ATCC 11229) ([1]; 75 ppm, pH 7, 77° F., Example 3): 6.83 log
log reduction E. coli (ATCC 11229) ([1]; 75 ppm, pH 7, 104° F.): 6.95 log
log reduction E. coli (ATCC 11229) ([1]; 75 ppm, pH 9, 77° F., Example 3): 6.50 log
log reduction E. coli (ATCC 11229) ([1]; 75 ppm, pH 9, 104° F.): 6.95 log
log reduction E. coli (ATCC 11229) ([1]; 100 ppm, pH 5, 77° F., Example 3): 6.83 log
log reduction E. coli (ATCC 11229) ([1]; 100 ppm, pH 9, 77° F., Example 3): 6.83 log
log reduction S. aureus (ATCC 6538) ([2]; 20 ppm, pH 5, 120° F.): 6.88 log
log reduction S. aureus (ATCC 6538) ([2]; 30 ppm, pH 5, 120° F.): 6.69 log and 6.88 log
log reduction S. aureus (ATCC 6538) ([2]; 30 ppm, pH 8, 120° F.): 6.69 log
log reduction S. aureus (ATCC 6538) ([2]; 40 ppm, pH 8, 120° F.): 6.69 log
Average Log Reduction ([2]; pH 4, 77° F.): 6.89 log
CFU - Dilution 1E−01 ([2]; pH 4, 77° F.): 0 CFU
CFU - Dilution 1E−02 ([2]; pH 4, 77° F.): 0 CFU
CFU/mL ([2]; pH 4, 77° F.): 1.0E+01 CFU/mL
Log ([2]; pH 4, 77° F.): 1.00
Log Reduction ([2]; pH 4, 77° F.): 6.89 log
Average Log Reduction ([2]; pH 5, 77° F.): 6.89 log
CFU - Dilution 1E−01 ([2]; pH 5, 77° F.): 0 CFU
CFU - Dilution 1E−02 ([2]; pH 5, 77° F.): 0 CFU
CFU/mL ([2]; pH 5, 77° F.): 1.0E+01 CFU/mL
Log ([2]; pH 5, 77° F.): 1.00
Log Reduction ([2]; pH 5, 77° F.): 6.89 log
Average Log Reduction ([2]; pH 6, 77° F.): 6.89 log
CFU - Dilution 1E−01 ([2]; pH 6, 77° F.): 0 CFU
CFU/mL ([2]; pH 6, 77° F.): 1.0E+01 CFU/mL
Log ([2]; pH 6, 77° F.): 1.00
Log Reduction ([2]; pH 6, 77° F.): 6.89 log
Average Log Reduction [2, 9]: 6.89 log
CFU - Dilution 1E−01 [2, 9]: 0 CFU
CFU - Dilution 1E−02 [2, 9]: 0 CFU
CFU/mL [2, 9]: 1.0E+01 CFU/mL
Log [2, 9]: 1.00
Log Reduction [2, 9]: 6.89 log

didecyl dimethyl ammonium methyl sulfonate/sulfate [Quat]
Average Log Reduction ([1]; 30 ppm, pH 5, 120° F.): 4.93 log
Log Reduction ([1]; 30 ppm, pH 5, 120° F., per replicate, listed as Stepan Quat): 4.85 log and 5.02 log
CFU - Dilution 1E−01 [1, 10]: 63 CFU and 46 CFU
CFU/mL [1, 10]: 6.8E+02 CFU/mL and 4.6E+02 CFU/mL
Log [1, 10]: 2.83 and 2.67
log reduction S. aureus (ATCC 6538) ([2]; 30 ppm, pH 5, 120° F.): 6.69 log

From patent US20250261636A1, “QUATERNARY AMMONIUM SANITIZING COMPOSITION” (ECOLAB USA INC., priority 2020, published 2025)
